Experimental data as given in ChEMBL document CHEMBL6103552, “Identification of peptide-based hepatitis B virus capsid inhibitors based on the viral core protein” (Bioorg Med Chem Lett, 2025).
Calls of active or inactive are those of the source. The rule behind the calls is not given here. Residues, ends and D or L forms follow the SMILES beside them.

These molecules were tested against Core antigen (Hepatitis B virus) (UniProt Q03732) (assay: Inhibition of Hepatitis B virus capsid formation at 100 uM treated during cell-free wild type HBV Cp synthesis using wheat germ lysates and HBV Cp RNA by Native capsid assay based western blot analysis).
Core antigen (Hepatitis B virus), sequence (Q03732 as listed by the source): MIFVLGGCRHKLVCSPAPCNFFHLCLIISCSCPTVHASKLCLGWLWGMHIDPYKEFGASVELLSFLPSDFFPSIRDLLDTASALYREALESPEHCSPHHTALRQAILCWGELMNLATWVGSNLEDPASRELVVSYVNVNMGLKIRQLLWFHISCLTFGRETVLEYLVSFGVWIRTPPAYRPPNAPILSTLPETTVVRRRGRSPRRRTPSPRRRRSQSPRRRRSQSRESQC
Format: subcellular
In the case of `CC[C@H](C)[C@H](NC(=O)[C@H](C)NC(=O)[C@H](CCC(N)=O)NC(=O)[C@@H]1CCCN1C(=O)[C@H](CC(C)C)NC(=O)[C@H](C)NC(=O)[C@@H](NC(=O)[C@H](Cc1c[nH]cn1)NC(=O)[C@H](Cc1c[nH]cn1)NC(C)=O)[C@@H](C)O)C(=O)N[C@@H](CC(C)C)C(=O)N[C@@H](CS)C(=O)N[C@@H](Cc1c[nH]c2ccccc12)C(=O)NCC(=O)N[C@@H](CCC(=O)O)C(=O)N[C@@H](CC(C)C)C(N)=O` (Ac-HHTALPQAILCWGEL-NH2), the inhibition is reported as “inactive”.
For `CC[C@H](C)[C@H](NC(C)=O)C(=O)N[C@@H](CCCNC(=N)N)C(=O)N[C@H](C(=O)N1CCC[C@H]1C(=O)N1CCC[C@H]1C(=O)N[C@@H](C)C(=O)N[C@@H](Cc1ccc(O)cc1)C(=O)N[C@@H](CCCNC(=N)N)C(=O)N1CCC[C@H]1C(=O)N1CCC[C@H]1C(=O)N[C@@H](CC(N)=O)C(=O)N[C@@H](C)C(=O)N1CCC[C@H]1C(=O)N[C@H](C(=O)N[C@@H](CC(C)C)C(N)=O)[C@@H](C)CC)[C@@H](C)O` (Ac-IRTPPAYRPPNAPIL-NH2), the inhibition was “inactive”.
For `CC(=O)N[C@@H](CC(C)C)C(=O)N[C@@H](CC(=O)O)C(=O)N[C@H](C(=O)N[C@@H](C)C(=O)N[C@@H](CO)C(=O)N[C@@H](C)C(=O)N[C@@H](CC(C)C)C(=O)N[C@@H](Cc1ccc(O)cc1)C(=O)N[C@@H](CCCNC(=N)N)C(=O)N[C@@H](CCC(=O)O)C(=O)N[C@@H](C)C(=O)N[C@@H](CC(C)C)C(=O)N[C@@H](CCC(=O)O)C(=O)N[C@@H](CO)C(=O)N1CCC[C@H]1C(N)=O)[C@@H](C)O` (Ac-LDTASALYREALESP-NH2), the inhibition was “inactive”.
In the case of `CC[C@H](C)[C@H](NC(=O)[C@H](Cc1c[nH]c2ccccc12)NC(=O)[C@@H](NC(=O)CNC(=O)[C@H](Cc1ccccc1)NC(=O)[C@H](CO)NC(=O)[C@@H](NC(=O)[C@H](CC(C)C)NC(=O)[C@H](Cc1ccc(O)cc1)NC(=O)[C@H](CCC(=O)O)NC(=O)[C@H](CC(C)C)NC(C)=O)C(C)C)C(C)C)C(=O)N[C@@H](CCCNC(=N)N)C(=O)N[C@H](C(=O)N1CCC[C@H]1C(=O)N1CCC[C@H]1C(N)=O)[C@@H](C)O` (Ac-LEYLVSFGVWIRTPP-NH2), the inhibition is reported as “inactive”.
For `CC[C@H](C)[C@H](NC(=O)[C@H](Cc1c[nH]cn1)NC(=O)[C@H](Cc1ccccc1)NC(=O)[C@H](Cc1c[nH]c2ccccc12)NC(=O)[C@H](CC(C)C)NC(C)=O)C(=O)N[C@@H](CO)C(=O)N[C@@H](CS)C(=O)N[C@@H](CC(C)C)C(=O)N[C@H](C(=O)N[C@@H](Cc1ccccc1)C(=O)NCC(=O)N[C@@H](CCCNC(=N)N)C(=O)N[C@@H](CCC(=O)O)C(=O)N[C@H](C(=O)N[C@H](C(N)=O)C(C)C)[C@@H](C)O)[C@@H](C)O` (Ac-LWFHISCLTFGRETV-NH2), the inhibition was “inactive”.
With `CC(=O)N1CCC[C@H]1C(=O)N[C@@H](CCCNC(=N)N)C(=O)N[C@@H](CCCNC(=N)N)C(=O)N[C@@H](CCCNC(=N)N)C(=O)N[C@@H](CCCNC(=N)N)C(=O)N[C@@H](CO)C(=O)N[C@@H](CCC(N)=O)C(=O)N[C@@H](CO)C(=O)N[C@@H](CCCNC(=N)N)C(=O)N[C@@H](CCC(=O)O)C(=O)N[C@@H](CO)C(=O)N[C@@H](CCC(N)=O)C(=O)N[C@@H](CS)C(N)=O` (Ac-PRRRRSQSRESQC-NH2) the inhibition was “inactive”.
With `CC(=O)N1CCC[C@H]1C(=O)N[C@@H](CCCNC(=N)N)C(=O)N[C@@H](CCCNC(=N)N)C(=O)N[C@@H](CCCNC(=N)N)C(=O)N[C@H](C(=O)N1CCC[C@H]1C(=O)N[C@@H](CO)C(=O)N1CCC[C@H]1C(=O)N[C@@H](CCCNC(=N)N)C(=O)N[C@@H](CCCNC(=N)N)C(=O)N[C@@H](CCCNC(=N)N)C(=O)N[C@@H](CCCNC(=N)N)C(=O)N[C@@H](CO)C(=O)N[C@@H](CCC(N)=O)C(=O)N[C@@H](CO)C(N)=O)[C@@H](C)O` (Ac-PRRRTPSPRRRRSQS-NH2) the inhibition was “inactive”.
In the case of `CC(=O)N1CCC[C@H]1C(=O)N[C@@H](CO)C(=O)N1CCC[C@H]1C(=O)N[C@@H](CCCNC(=N)N)C(=O)N[C@@H](CCCNC(=N)N)C(=O)N[C@@H](CCCNC(=N)N)C(=O)N[C@@H](CCCNC(=N)N)C(=O)N[C@@H](CO)C(=O)N[C@@H](CCC(N)=O)C(=O)N[C@@H](CO)C(=O)N1CCC[C@H]1C(=O)N[C@@H](CCCNC(=N)N)C(=O)N[C@@H](CCCNC(=N)N)C(=O)N[C@@H](CCCNC(=N)N)C(=O)N[C@@H](CCCNC(=N)N)C(N)=O` (Ac-PSPRRRRSQSPRRRR-NH2), the inhibition is reported as “inactive”.
With `CC(=O)N[C@@H](CCC(N)=O)C(=O)N[C@@H](CO)C(=O)N1CCC[C@H]1C(=O)N[C@@H](CCCNC(=N)N)C(=O)N[C@@H](CCCNC(=N)N)C(=O)N[C@@H](CCCNC(=N)N)C(=O)N[C@@H](CCCNC(=N)N)C(=O)N[C@@H](CO)C(=O)N[C@@H](CCC(N)=O)C(=O)N[C@@H](CO)C(=O)N[C@@H](CCCNC(=N)N)C(=O)N[C@@H](CCC(=O)O)C(=O)N[C@@H](CO)C(=O)N[C@@H](CCC(N)=O)C(=O)N[C@@H](CS)C(N)=O` (Ac-QSPRRRRSQSRESQC-NH2) the inhibition was “inactive”.
In the case of `CC(=O)N[C@@H](CCCNC(=N)N)C(=O)N[C@@H](CCCNC(=N)N)C(=O)NCC(=O)N[C@@H](CCCNC(=N)N)C(=O)N[C@@H](CO)C(=O)N1CCC[C@H]1C(=O)N[C@@H](CCCNC(=N)N)C(=O)N[C@@H](CCCNC(=N)N)C(=O)N[C@@H](CCCNC(=N)N)C(=O)N[C@H](C(=O)N1CCC[C@H]1C(=O)N[C@@H](CO)C(=O)N1CCC[C@H]1C(=O)N[C@@H](CCCNC(=N)N)C(=O)N[C@@H](CCCNC(=N)N)C(N)=O)[C@@H](C)O` (Ac-RRGRSPRRRTPSPRR-NH2), the inhibition is reported as “inactive”.
For `CC(=O)N[C@@H](CCCNC(=N)N)C(=O)N[C@@H](CCCNC(=N)N)C(=O)N[C@@H](CO)C(=O)N[C@@H](CCC(N)=O)C(=O)N[C@@H](CO)C(=O)N1CCC[C@H]1C(=O)N[C@@H](CCCNC(=N)N)C(=O)N[C@@H](CCCNC(=N)N)C(=O)N[C@@H](CCCNC(=N)N)C(=O)N[C@@H](CCCNC(=N)N)C(=O)N[C@@H](CO)C(=O)N[C@@H](CCC(N)=O)C(=O)N[C@@H](CO)C(=O)N[C@@H](CCCNC(=N)N)C(=O)N[C@@H](CCC(=O)O)C(N)=O` (Ac-RRSQSPRRRRSQSRE-NH2), the inhibition was “inactive”.
In the case of `CC(=O)N[C@@H](CO)C(=O)N[C@@H](CS)C(=O)N[C@@H](CC(C)C)C(=O)N[C@H](C(=O)N[C@@H](Cc1ccccc1)C(=O)NCC(=O)N[C@@H](CCCNC(=N)N)C(=O)N[C@@H](CCC(=O)O)C(=O)N[C@H](C(=O)N[C@H](C(=O)N[C@@H](CC(C)C)C(=O)N[C@@H](CCC(=O)O)C(=O)N[C@@H](Cc1ccc(O)cc1)C(=O)N[C@@H](CC(C)C)C(=O)N[C@H](C(N)=O)C(C)C)C(C)C)[C@@H](C)O)[C@@H](C)O` (Ac-SCLTFGRETVLEYLV-NH2), the inhibition is reported as “inactive”.
In the case of `CC(=O)N[C@H](C(=O)N[C@H](C(=O)N[C@H](C(=O)N[C@H](C(=O)N[C@@H](CCCNC(=N)N)C(=O)N[C@@H](CCCNC(=N)N)C(=O)N[C@@H](CCCNC(=N)N)C(=O)NCC(=O)N[C@@H](CCCNC(=N)N)C(=O)N[C@@H](CO)C(=O)N1CCC[C@H]1C(=O)N[C@@H](CCCNC(=N)N)C(=O)N[C@@H](CCCNC(=N)N)C(=O)N[C@@H](CCCNC(=N)N)C(=O)N[C@H](C(N)=O)[C@@H](C)O)C(C)C)C(C)C)[C@@H](C)O)[C@@H](C)O` (Ac-TTVVRRRGRSPRRRT-NH2), the inhibition is reported as “inactive”.
With `CSCC[C@H](NC(=O)[C@H](CC(N)=O)NC(=O)[C@@H](NC(=O)[C@H](CC(N)=O)NC(=O)[C@@H](NC(=O)[C@H](Cc1ccc(O)cc1)NC(=O)[C@H](CO)NC(=O)[C@@H](NC(C)=O)C(C)C)C(C)C)C(C)C)C(=O)NCC(=O)N[C@@H](CC(C)C)C(=O)N[C@@H](CCCCN)C(=O)N[C@@H](Cc1ccccc1)C(=O)N[C@@H](CCCNC(=N)N)C(=O)N[C@@H](CCC(N)=O)C(=O)N[C@@H](CC(C)C)C(N)=O` (Ac-VSYVNVNMGLKFRQL-NH2) the inhibition was “inactive”.
`CC(C)C[C@H](NC(=O)[C@H](C)NC(=O)[C@@H](NC(=O)[C@H](Cc1c[nH]cn1)NC(=O)[C@H](Cc1c[nH]cn1)NC(=O)[C@@H]1CCCN1C(=O)[C@H](CO)NC(=O)[C@H](CS)NC(=O)[C@H](Cc1c[nH]cn1)NC(=O)[C@H](CCC(=O)O)NC(=O)[C@@H]1CCCN1C(=O)[C@H](CO)NC(=O)[C@H](CCC(=O)O)NC(=O)[C@H](CC(C)C)NC(=O)[C@H](C)N)[C@@H](C)O)C(N)=O` (H-ALESPEHCSPHHTAL-NH2) was tested, and the inhibition was “inactive”.
`CC(C)C[C@H](NC(=O)[C@H](C)N)C(=O)N[C@@H](Cc1ccc(O)cc1)C(=O)N[C@@H](CCCNC(=N)N)C(=O)N[C@@H](CCC(=O)O)C(=O)N[C@@H](C)C(=O)N[C@@H](CC(C)C)C(=O)N[C@@H](CCC(=O)O)C(=O)N[C@@H](CO)C(=O)N1CCC[C@H]1C(=O)N[C@@H](CCC(=O)O)C(=O)N[C@@H](Cc1c[nH]cn1)C(=O)N[C@@H](CS)C(=O)N[C@@H](CO)C(=O)N1CCC[C@H]1C(N)=O` (H-ALYREALESPEHCSP-NH2) was tested, and the inhibition was “inactive”.
`CC[C@H](C)[C@H](NC(=O)[C@@H]1CCCN1C(=O)[C@H](C)NC(=O)[C@H](CC(N)=O)NC(=O)[C@@H]1CCCN1C(=O)[C@@H]1CCCN1C(=O)[C@H](CCCNC(=N)N)NC(=O)[C@H](Cc1ccc(O)cc1)NC(=O)[C@H](C)N)C(=O)N[C@@H](CC(C)C)C(=O)N[C@@H](CO)C(=O)N[C@H](C(=O)N[C@@H](CC(C)C)C(=O)N1CCC[C@H]1C(=O)N[C@@H](CCC(=O)O)C(N)=O)[C@@H](C)O` (H-AYRPPNAPILSTLPE-NH2) was tested, and the inhibition was “inactive”.
`CC[C@H](C)[C@H](NC(=O)[C@H](C)NC(=O)[C@H](CCC(N)=O)NC(=O)[C@@H]1CCCN1C(=O)[C@H](CC(C)C)NC(=O)[C@H](C)NC(=O)[C@@H](NC(=O)[C@H](Cc1c[nH]cn1)NC(=O)[C@H](Cc1c[nH]cn1)NC(=O)[C@@H]1CCCN1C(=O)[C@H](CO)NC(=O)[C@H](CS)NC(=O)[C@H](Cc1c[nH]cn1)NC(=O)[C@@H](N)CCC(=O)O)[C@@H](C)O)C(=O)N[C@@H](CC(C)C)C(N)=O` (H-EHCSPHHTALPQAIL-NH2) was tested, and the inhibition was “inactive”.
For `CC(C)C[C@H](NC(=O)[C@H](Cc1ccc(O)cc1)NC(=O)[C@H](CCC(=O)O)NC(=O)[C@H](CC(C)C)NC(=O)[C@@H](NC(=O)[C@@H](NC(=O)[C@H](CCC(=O)O)NC(=O)[C@H](CCCNC(=N)N)NC(=O)CN)[C@@H](C)O)C(C)C)C(=O)N[C@H](C(=O)N[C@@H](CO)C(=O)N[C@@H](Cc1ccccc1)C(=O)NCC(=O)N[C@H](C(=O)N[C@@H](Cc1c[nH]c2ccccc12)C(N)=O)C(C)C)C(C)C` (H-GRETVLEYLVSFGVW-NH2), the inhibition was “inactive”.
